Laboratory results as given in US11684591B2, “Use of a GABAA receptor allosteric enhancer in medicine” (XI'AN LIBANG ZHAOXIN BIOTECHNOLOGY CO., LTD., priority 2018, dated 2023).

What was measured:
[1] = system: PTZ-induced tonic-clonic seizures; experiment: Antiepileptic test in rats with PTZ-induced seizures; assay type: in vivo, male SD rats; parameters: key to Seizure Intensity (total score of 7 animals): summed score: grade V = 5, IV = 4, III = 3, below III = 0; conditions: 45 mg/kg i.v.; for Number of episodes (animals), grade III / Number of episodes (animals), grade IV / Number of episodes (animals), grade V / Seizure Intensity (total score of 7 animals): n = 7
Method: 3. Antiepileptic Test of Compounds 1 and Dipropofol (3,3′, 5,5′-Tetraisopropyl-4,4′-Biphenol) in Rats with PTZ-Induced Seizures
In this test, male SD rats (Xi'an Jiaotong University), weighing 200 to 250 g, were used and intravenously administrated with 45 mg/kg of a Dipropofol injection, a Compound 1 injection, and blank solvent of the same volume. 1, 3, 5, 10, 15, 30, 60, 90 mins, and 120 mins after the intravenous administration, 70 mg/kg of PTZ was intraperitoneally injected in the rats to induce tonic-clonic seizures. 7 rats were used for each time point in each drug group. Rat seizure intensity was recorded in accordance with the Racine grading criteria in grade III to V seizure status. Scores were recorded according to the seizure intensity: 5 points for grade V, 4 points for grade IV, 3 points for grade III, and 0 point for below grade III.

[2] = system: GABAA, Chloride Channel, TBPS; experiment: [35S]TBPS radioligand receptor competitive binding test; parameters: species or system rats; conditions: [35S]TBPS competitive binding
Method: 2. In Vitro GABAA Receptor Target Affinity Test
A radioligand ([^35S] TBPS) receptor competitive binding test was used to evaluate the affinity of the test compound (10 uM) with GABAA receptors.

[3] = Distribution in brain tissues after intravenous administration in rats (LC-MS/MS); assay type: in vivo, SD rats
Method: 1. Comparative Test of the Distribution in Brain Tissues of Compound 1 and Dipropofol (3,3′, 5,5′-Tetraisopropyl-4,4′-Biphenol) after Intravenous Administration in Rats
72 SD rats, weighing 200 to 220 g, were randomly divided into 12 groups (6 per time group), and fasted for 12 h before administration. A dose of 45 mg/kg was intravenously administered with Compound 1 or the dipropofol respectively, and the rates were sacrificed at 5 min, 15 min, 30 min, 1 h, 2 h and 4 h after the administration. The brain tissues were removed immediately, rinsed with ice-cold distilled water, blotted dry, and frozen at −40° C. for storage. The concentration of Compound 1 or the dipropofol in the brain tissues at different points in time after administration in rats was measured by LC-MS/MS, as shown in Table 1 and FIG. 1.

[4] = PTZ 70 mg/kg i.p. 1 min after administration
[5] = PTZ 70 mg/kg i.p. 3 min after administration
[6] = PTZ 70 mg/kg i.p. 5 min after administration
[7] = PTZ 70 mg/kg i.p. 10 min after administration
[8] = PTZ 70 mg/kg i.p. 15 min after administration
[9] = PTZ 70 mg/kg i.p. 30 min after administration
[10] = PTZ 70 mg/kg i.p. 60 min after administration
[11] = PTZ 70 mg/kg i.p. 90 min after administration
[12] = PTZ 70 mg/kg i.p. 120 min after administration

## CCCc1cc(-c2cc(CCC)c(O)c(C(C)C)c2)cc(C(C)C)c1O [Compound 1, 4,4′-dihydroxy-3,3′-diisopropyl-5,5′-dipropylbiphenyl]
[1]; [4]
  Number of episodes (animals), grade III: 2
  Number of episodes (animals), grade IV: 2
  Number of episodes (animals), grade V: 0
  Seizure Intensity (total score of 7 animals): 14
[1]; [5]
  Number of episodes (animals), grade III: 0
  Number of episodes (animals), grade IV: 0
  Number of episodes (animals), grade V: 0
  Seizure Intensity (total score of 7 animals): 0
[1]; [6]
  Number of episodes (animals), grade III: 0
  Number of episodes (animals), grade IV: 0
  Number of episodes (animals), grade V: 0
  Seizure Intensity (total score of 7 animals): 0
[1]; [7]
  Number of episodes (animals), grade III: 0
  Number of episodes (animals), grade IV: 0
  Number of episodes (animals), grade V: 0
  Seizure Intensity (total score of 7 animals): 0
[1]; [8]
  Number of episodes (animals), grade III: 0
  Number of episodes (animals), grade IV: 0
  Number of episodes (animals), grade V: 0
  Seizure Intensity (total score of 7 animals): 0
[1]; [9]
  Number of episodes (animals), grade III: 0
  Number of episodes (animals), grade IV: 0
  Number of episodes (animals), grade V: 0
  Seizure Intensity (total score of 7 animals): 0
[1]; [10]
  Number of episodes (animals), grade III: 0
  Number of episodes (animals), grade IV: 0
  Number of episodes (animals), grade V: 0
  Seizure Intensity (total score of 7 animals): 0
[1]; [11]
  Number of episodes (animals), grade III: 0
  Number of episodes (animals), grade IV: 0
  Number of episodes (animals), grade V: 0
  Seizure Intensity (total score of 7 animals): 0
[1]; [12]
  Number of episodes (animals), grade III: 0
  Number of episodes (animals), grade IV: 0
  Number of episodes (animals), grade V: 0
  Seizure Intensity (total score of 7 animals): 0
[1]; rats
  Time after administration for which the potency can be maintained: ≥ 120 min
[2]
  Affinity for the GABAA receptors (in words): high affinity for the GABAA receptors, which affinity is comparable to that of the dipropofol
[2]; rats, test concentration 30, 10, 3, 1, 0.3 uM
  IC50: 2930 nM
[3]; 45 mg/kg i.v.
  AUC0-4h in the brain tissues relative to that of the dipropofol: about 1.31 times
  Time at which concentration peaked in the brain tissues: 15 min
[3]; 45 mg/kg i.v., 5 min after administration
  Concentration in the brain tissues relative to that of the dipropofol: 2.75 times
[3]; SD, rat, brain, iv, 45 mg/kg i.v., 5 min after administration, average, read-out: Drug concentration in brain tissues
  concentration at 5 min: 35200 ng/g
[3]; SD, rat, brain, iv, 45 mg/kg i.v., 15 min after administration, average, read-out: Drug concentration in brain tissues
  concentration at 15 min: 42700 ng/g
[3]; SD, rat, brain, iv, 45 mg/kg i.v., 30 min after administration, average, read-out: Drug concentration in brain tissues
  concentration at 30 min: 39800 ng/g
[3]; SD, rat, brain, iv, 45 mg/kg i.v., 1 h after administration, average, read-out: Drug concentration in brain tissues
  concentration at 1 h: 32000 ng/g
[3]; SD, rat, brain, iv, 45 mg/kg i.v., 2 h after administration, average, read-out: Drug concentration in brain tissues
  concentration at 2 h: 22700 ng/g
[3]; SD, rat, brain, iv, 45 mg/kg i.v., 4 h after administration, average, read-out: Drug concentration in brain tissues
  concentration at 4 h: 7750 ng/g
[3]; same i.v. dose
  Brain entry rate and brain intake amount compared with dipropofol: significantly higher brain entry rate and brain intake amount than the dipropofol
